Measured values published in patent US20110218188A1, “SUBSTITUTED (PYRIDYL)-AZINYLAMINE DERIVATIVES AS FUNGICIDES” (priority 2008, published 2011).

Assay: Measurement of logP values by HPLC on reversed phase columns (EEC directive 79/831 Annex V.A8)
Type: physicochemical
Conditions: for logP [b]: pH 2.3

Row | SMILES | logP (pH 2.7) | also measured
1 | CC(C)CN(C)C(=O)c1cc(-c2ncnc(Nc3cccc(OC(F)F)c3)n2)ccn1 [Example B301] | 3.15 | –
2 | CCCN(CCO)C(=O)c1cc(-c2ccnc(Nc3ccnc(Cl)c3)n2)ccn1 [Example A10] | 1.84 | –
3 | COC(=O)c1cc(-c2ncnc(Nc3ccc(Cl)c(OC)c3)n2)ccn1 [B417] | 2.80 | –
4 | CC(C)CN(C)C(=O)c1cc(-c2ncnc(Nc3ccc(F)c(C(F)F)c3)n2)ccn1 [Example B395] | 3.15 | –
5 | CCOC1CCC(NC(=O)c2cc(-c3ncnc(Nc4cccc(Cl)c4)n3)ccn2)CC1 (centres unmarked) [Example B97] | 4.39 | –
6 | CN(CC1CC1)C(=O)c1cc(-c2ncnc(Nc3ccc(F)c(F)c3)n2)ccn1 [Example B381] | 2.98 | –
7 | O=CN1CCN(C(=O)c2cc(-c3ncnc(Nc4cccc(Cl)c4)n3)ccn2)CC1 [Example B163] | 2.04 | –
8 | CNN=C(C)c1cc(-c2ncnc(Nc3cccc(Cl)c3)n2)ccn1 [Example B75] | 2.27 | –
9 | CCCN(C)C(=O)c1cc(-c2ncnc(Nc3cccc(F)c3)n2)ccn1 [Example B3] | 2.72 | –
10 | CCCN(CC)C(=O)c1cc(-c2ccnc(Nc3ccnc(Cl)c3)n2)ccn1 [Example A26] | 2.51 | –
11 | CCCN(CCO)C(=O)c1cc(-c2ncnc(Nc3cccc(Cl)c3)n2)ccn1 [Example B181] | – | logP [b]: 2.51[b]
12 | COC(=O)c1cc(-c2ncnc(Nc3ccnc(Cl)c3)n2)ccn1 [Example C25] | 2.02 | –
13 | CC(C)N(C)C(=O)c1cc(-c2ncnc(Nc3cccc(C(F)(F)F)c3)n2)ccn1 [B360] | 3.15 | –
14 | CCON(CC)C(=O)c1cc(-c2ncnc(Nc3cccc(C(F)F)c3)n2)ccn1 [B414] | 2.88 | –
15 | CCN(CCO)C(=O)c1cc(-c2ncnc(Nc3cccc(Cl)c3)n2)ccn1 [Example B164] | 2.25 | –
16 | CCN(OC)C(=O)c1cc(-c2ncnc(Nc3cccc(C(F)F)c3)n2)ccn1 [B413] | 2.64 | –

Row | SMILES | logP (pH 2.7) | also measured
17 | CCOC(=O)c1cc(-c2ccnc(Nc3ccc(OC)nc3)n2)ccn1 [Example A1, ethyl 4-{2-[(6-methoxypyridin-3-yl)amino]-pyrimidin-4-yl}pyridine-2-carboxylate] | – | chromatographic logP (pH 2.7): 1.1
18 | CCN(CC)C(=S)c1cc(-c2ncnc(Nc3ccc(F)c(C(F)F)c3)n2)ccn1 [Example B327] | 3.37 | –
19 | CN(C)C(=O)c1cc(-c2ncnc(Nc3ccccc3)n2)ccn1 [Example B314] | 1.95 | –
20 | CN(CCO)C(=O)c1cc(-c2ncnc(Nc3cccc(Cl)c3)n2)ccn1 [Example B136] | 2.04 | –
21 | CCON(CC)C(=O)c1cc(-c2ncnc(Nc3ccsc3)n2)ccn1 [Example C31] | 2.59 | –
22 | CN(CC1CC1)C(=S)c1cc(-c2ncnc(Nc3cccc(C(F)F)c3)n2)ccn1 [Example B331] | 3.37 | –
23 | CCC(=O)O/N=C(/N)c1cc(-c2ncnc(Nc3cccc(Cl)c3)n2)ccn1 [B108] | 3.33 | –
24 | CCN(CC)C(=O)c1cc(-c2ncnc(Nc3ccc(Cl)c(C(F)F)c3)n2)ccn1 [Example B352] | 3.23 | –
25 | COC1CCCN(C(=O)c2cc(-c3ncnc(Nc4cccc(Cl)c4)n3)ccn2)C1 (centres unmarked) [Example B179] | – | logP [b]: 2.76[b]
26 | CC(=NOC(C1CC1)C1CC1)c1cc(-c2ncnc(Nc3cccc(Cl)c3)n2)ccn1 (mixture of isomers) [Example B48] | 5.64 | –
27 | CN(CC(F)F)C(=O)c1cc(-c2ncnc(Nc3ccc(F)c(C(F)F)c3)n2)ccn1 [Example B398] | 2.84 | –
28 | CCOc1cccc(Nc2ncnc(-c3ccnc(C(=O)N(C)CC)c3)n2)c1 [Example B254] | 2.6 | –
29 | O=C(O)c1cc(-c2ncnc(Nc3cccc(Cl)c3)n2)ccn1 [B404] | 2.11 | –
30 | CCCN(C)C(=O)c1cc(-c2ncnc(Nc3cccc(C(F)F)c3)n2)ccn1 [Example B286] | 2.73 | –
31 | CCC(COC)NC(=O)c1cc(-c2ncnc(Nc3ccc(C)c(Cl)c3)n2)ccn1 (centres unmarked) [B229] | 4.24 | –
32 | O=C(c1cc(-c2ncnc(Nc3cccc(Cl)c3)n2)ccn1)N1CCCC1 [Example B28] | 2.88 | –
